Test results from patent US20260297134A1, “CYCLIC PEPTIDES AS PET IMAGING AGENTS OF GRANZYME B” (Merck Sharp & Dohme LLC, priority 2023, published 2026).
Bridge positions count the residues as written; N and C are the ends. Square brackets hold non-standard residues; d marks the D form. Peptide text beside a SMILES is read from it. NMeF = CN[C@@H](Cc1ccccc1)C(=O)O; NMeA = CN[C@@H](C)C(=O)O

target: human Granzyme B (hGranzyme B) (Homo sapiens, UniProt P10144); assay: Surface Plasmon Resonance (SPR) binding to human Granzyme B; settings: Table 8, 25° C.
Sequence (P10144 21-247): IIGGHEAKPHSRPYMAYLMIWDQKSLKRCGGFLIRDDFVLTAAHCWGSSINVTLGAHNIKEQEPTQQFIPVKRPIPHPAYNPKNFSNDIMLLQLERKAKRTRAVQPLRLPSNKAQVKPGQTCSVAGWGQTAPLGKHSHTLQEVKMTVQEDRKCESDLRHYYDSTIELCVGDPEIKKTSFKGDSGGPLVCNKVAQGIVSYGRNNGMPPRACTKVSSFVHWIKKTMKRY
Experimental: All reagents and solvents were purchased from commercial sources and used “as is” unless otherwise noted. Reaction progress and synthetic intermediate analysis were assessed by LCMS (UV detection with ESI, APCI, or other mass detection) when applicable using a MeCN/water gradient with either TFA, formic acid, or NH4HCO3 modifier. Silica gel and reverse-phase flash column chromatography were conducted with commercially available pre-packed columns. Reverse-phase preparative HPLC purification was performed on preparative HPLC instruments with UV and MS detection using a MeCN/water gradient with either TFA, formic acid, or NH4OH modifier. Unless otherwise noted, all KD data presented in tables refers to the surface plasmon resonance assay that is described in the Biological Assay section.
The kinetics of test peptide binding to human Granzyme B (hGranzyme B) was determined by SPR. All experiments were performed at 25° C. using the Biacore 8k+ instrument (Cytiva, Marlborough, MA). The Biacore 8k+ Insight Evaluation Software Version 3.0 was used to fit the data with a 1:1 binding model to determine the association rate constant ka (M^−1s^−1, where “M” equals molar and “s” equals seconds) and the dissociation rate constant kd (s^−1). These rate constants were used to calculate the equilibrium dissociation constant, KD (M)=kd/ka. To measure the binding kinetics of peptides of interest, surfaces were prepared by a capture method to a Series S Streptavidin (SA) chip using a 1×HBS-EP+ running buffer (Cytiva). hGranzyme B was diluted to 10 μg/mL in 1×HBS-EP+ and flowed over spot 2 of each flow cell on the chip at a flow rate of 10 μl/min for 20 s to achieve a level of capture of ~1100 RU. An unmodified spot 1 of each flow cell was used as a matrix binding control or reference surface. Binding kinetics were measured using single cycle kinetics at 25° C. by injecting 5 concentrations with 3-fold serial dilutions of test peptides from […] to 1 μM. Compound dilutions were performed manually in a running buffer containing 1×HBS-EP+(Cytiva), and a final concentration of 2% DMSO. The interaction analyses over hGranzyme B, were performed using a 120 s association time and a 900 s dissociation time. All experiments were conducted at a flow rate of […] with a data collection rate of 10 Hz.
Peptide dilution series included 2 zero concentration points (no compound) which were averaged and subtracted from the peptide concentration injection as DMSO control responses. Binding data acquired from the reference surface (matrix binding control) were subtracted from the binding data for hGranzyme B surface on the chip to determine specific binding. Next, the association phase data were solvent corrected to account for any signal fluctuation throughout the experiment due to subtle DMSO concentration differences. Corrected response data were analyzed using the Biacore 8k+ Evaluation Software Version 3.0 according to the manufacturer. SPR data for representative compounds of the disclosure are found in Table 8.

Row | Structure (SMILES) | Kd
1 | CC(C)[C@@H]1NC(=O)[C@H](CC(=O)O)NC(=O)[C@H](C)NC(=O)[C@H](Cc2ccc(O)cc2)NC(=O)[C@H](Cc2ccccc2)N(C)C(=O)[C@H](Cc2ccccc2)N(C)C(=O)[C@H](Cc2ccccc2)NC(=O)CSC[C@@H](C(=O)NCC(N)=O)NC(=O)[C@H](Cc2c[nH]cn2)NC(=O)[C@H](Cc2ccccc2)N(C)C(=O)[C@H](Cc2ccc(O)cc2)NC(=O)[C@H](C(C)C)NC(=O)[C@H](CC(=O)O)NC(=O)[C@H](C(C)C)NC(=O)[C@H](CC(=O)O)NC1=O [Compound 15a, *F.NMeF.NMeF.Y.A.D.V.D.V.D.V.Y.NMeF.H.*C.G-NH2] ({CH2CO}-F[NMeF][NMeF]YADVDVDVY[NMeF]HCG-NH2; thioether N-15) | 0.8 nM
2 | CC(C)[C@@H]1NC(=O)[C@H](CC(=O)O)NC(=O)[C@H](Cc2ccc(O)cc2)NC(=O)[C@H](Cc2ccc(O)cc2)NC(=O)[C@H](Cc2ccccc2)N(C)C(=O)[C@H](Cc2ccccc2)N(C)C(=O)[C@H](Cc2ccccc2)NC(=O)CSC[C@@H](C(=O)NCC(N)=O)NC(=O)[C@H](Cc2c[nH]cn2)NC(=O)[C@H](Cc2ccccc2)N(C)C(=O)[C@H](Cc2ccc(O)cc2)NC(=O)[C@H](C(C)C)NC(=O)[C@H](CC(=O)O)NC(=O)[C@H](C)NC(=O)[C@H](CC(=O)O)NC1=O [Compound 16a, *F.NMeF.NMeF.Y.Y.D.V.D.A.D.V.Y.NMeF.H.*C.G-NH2] ({CH2CO}-F[NMeF][NMeF]YYDVDADVY[NMeF]HCG-NH2; thioether N-15) | 4.7 nM
3 | CC(C)[C@@H]1NC(=O)[C@H](CC(=O)O)NC(=O)[C@H](C(C)C)NC(=O)[C@H](CC(=O)O)NC(=O)[C@H](Cc2ccc(O)cc2)NC(=O)[C@H](Cc2ccc(O)cc2)NC(=O)[C@H](Cc2ccccc2)N(C)C(=O)[C@H](Cc2ccccc2)N(C)C(=O)[C@H](Cc2ccccc2)NC(=O)CSC[C@@H](C(=O)NCC(N)=O)NC(=O)[C@H](Cc2c[nH]cn2)NC(=O)[C@H](Cc2ccccc2)N(C)C(=O)[C@H](Cc2ccc(O)cc2)NC(=O)[C@H](C)NC(=O)[C@H](CC(=O)O)NC1=O [Compound 17a, *F.NMeF.NMeF.Y.Y.D.V.D.V.D.A.Y.NMeF.H.*C.G-NH2] ({CH2CO}-F[NMeF][NMeF]YYDVDVDAY[NMeF]HCG-NH2; thioether N-15) | 10.7 nM
4 | CC(C)[C@@H]1NC(=O)[C@H](CC(=O)O)NC(=O)[C@H](Cc2ccc(O)cc2)NC(=O)[C@H](Cc2ccc(O)cc2)NC(=O)[C@H](C)NC(=O)[C@H](Cc2ccccc2)N(C)C(=O)[C@H](Cc2ccccc2)NC(=O)CSC[C@@H](C(=O)NCC(N)=O)NC(=O)[C@H](Cc2c[nH]cn2)NC(=O)[C@H](Cc2ccccc2)N(C)C(=O)[C@H](Cc2ccc(O)cc2)NC(=O)[C@H](C(C)C)NC(=O)[C@H](CC(=O)O)NC(=O)[C@H](C(C)C)NC(=O)[C@H](CC(=O)O)NC1=O [Compound 18a, *F.NMeF.A.Y.Y.D.V.D.V.D.V.Y.NMeF.H.*C.G-NH2] ({CH2CO}-F[NMeF]AYYDVDVDVY[NMeF]HCG-NH2; thioether N-15) | 68 nM
5 | CC(C)[C@@H]1NC(=O)[C@H](CC(=O)O)NC(=O)[C@H](Cc2ccc(O)cc2)NC(=O)[C@H](Cc2ccc(O)cc2)NC(=O)[C@H](Cc2ccccc2)N(C)C(=O)[C@H](Cc2ccccc2)N(C)C(=O)[C@H](C)NC(=O)CSC[C@@H](C(=O)NCC(N)=O)NC(=O)[C@H](Cc2c[nH]cn2)NC(=O)[C@H](Cc2ccccc2)N(C)C(=O)[C@H](Cc2ccc(O)cc2)NC(=O)[C@H](C(C)C)NC(=O)[C@H](CC(=O)O)NC(=O)[C@H](C(C)C)NC(=O)[C@H](CC(=O)O)NC1=O [Compound 19a, *A.NMeF.NMeF.Y.Y.D.V.D.V.D.V.Y.NMeF.H.*C.G-NH2] ({CH2CO}-A[NMeF][NMeF]YYDVDVDVY[NMeF]HCG-NH2; thioether N-15) | 165 nM
6 | CC(C)[C@@H]1NC(=O)[C@H](CC(=O)O)NC(=O)[C@H](C)NC(=O)[C@H](CC(=O)O)NC(=O)[C@H](Cc2ccc(O)cc2)NC(=O)[C@H](Cc2ccc(O)cc2)NC(=O)[C@H](Cc2ccccc2)N(C)C(=O)[C@H](Cc2ccccc2)N(C)C(=O)[C@H](Cc2ccccc2)NC(=O)CSC[C@@H](C(=O)NCC(N)=O)NC(=O)[C@H](Cc2c[nH]cn2)NC(=O)[C@H](Cc2ccccc2)N(C)C(=O)[C@H](Cc2ccc(O)cc2)NC(=O)[C@H](C(C)C)NC(=O)[C@H](CC(=O)O)NC1=O [Compound 20a, *F.NMeF.NMeF.Y.Y.D.A.D.V.D.V.Y.NMeF.H.*C.G-NH2] ({CH2CO}-F[NMeF][NMeF]YYDADVDVY[NMeF]HCG-NH2; thioether N-15) | 288 nM
7 | CC(C)[C@@H]1NC(=O)[C@H](CC(=O)O)NC(=O)[C@H](C(C)C)NC(=O)[C@H](CC(=O)O)NC(=O)[C@H](C(C)C)NC(=O)[C@H](CC(=O)O)NC(=O)[C@H](Cc2ccc(O)cc2)NC(=O)[C@H](Cc2ccc(O)cc2)NC(=O)[C@H](Cc2ccccc2)N(C)C(=O)[C@H](Cc2ccccc2)N(C)C(=O)[C@H](Cc2ccccc2)NC(=O)CSC[C@@H](C(=O)NCC(N)=O)NC(=O)[C@H](Cc2c[nH]cn2)NC(=O)[C@H](Cc2ccccc2)N(C)C(=O)[C@H](C)NC1=O [Compound 21a, *F.NMeF.NMeF.Y.Y.D.V.D.V.D.V.A.NMeF.H.*C.G-NH2] ({CH2CO}-F[NMeF][NMeF]YYDVDVDVA[NMeF]HCG-NH2; thioether N-15) | 453 nM
8 | CC(C)[C@@H]1NC(=O)[C@H](C)NC(=O)[C@H](C(C)C)NC(=O)[C@H](CC(=O)O)NC(=O)[C@H](Cc2ccc(O)cc2)NC(=O)[C@H](Cc2ccc(O)cc2)NC(=O)[C@H](Cc2ccccc2)N(C)C(=O)[C@H](Cc2ccccc2)N(C)C(=O)[C@H](Cc2ccccc2)NC(=O)CSC[C@@H](C(=O)NCC(N)=O)NC(=O)[C@H](Cc2c[nH]cn2)NC(=O)[C@H](Cc2ccccc2)N(C)C(=O)[C@H](Cc2ccc(O)cc2)NC(=O)[C@H](C(C)C)NC(=O)[C@H](CC(=O)O)NC1=O [Compound 22a, *F.NMeF.NMeF.Y.Y.D.V.A.V.D.V.Y.NMeF.H.*C.G-NH2] ({CH2CO}-F[NMeF][NMeF]YYDVAVDVY[NMeF]HCG-NH2; thioether N-15) | 548 nM
9 | CC(C)[C@@H]1NC(=O)[C@H](CC(=O)O)NC(=O)[C@H](Cc2ccc(O)cc2)NC(=O)[C@H](C)NC(=O)[C@H](Cc2ccccc2)N(C)C(=O)[C@H](Cc2ccccc2)N(C)C(=O)[C@H](Cc2ccccc2)NC(=O)CSC[C@@H](C(=O)NCC(N)=O)NC(=O)[C@H](Cc2c[nH]cn2)NC(=O)[C@H](Cc2ccccc2)N(C)C(=O)[C@H](Cc2ccc(O)cc2)NC(=O)[C@H](C(C)C)NC(=O)[C@H](CC(=O)O)NC(=O)[C@H](C(C)C)NC(=O)[C@H](CC(=O)O)NC1=O [Compound 23a, *F.NMeF.NMeF.A.Y.D.V.D.V.D.V.Y.NMeF.H.*C.G-NH2] ({CH2CO}-F[NMeF][NMeF]AYDVDVDVY[NMeF]HCG-NH2; thioether N-15) | 752 nM
10 | CC(C)[C@@H]1NC(=O)[C@H](CC(=O)O)NC(=O)[C@H](Cc2ccc(O)cc2)NC(=O)[C@H](Cc2ccc(O)cc2)NC(=O)[C@H](C)N(C)C(=O)[C@H](Cc2ccccc2)N(C)C(=O)[C@H](Cc2ccccc2)NC(=O)CSC[C@@H](C(=O)NCC(N)=O)NC(=O)[C@H](Cc2c[nH]cn2)NC(=O)[C@H](Cc2ccccc2)N(C)C(=O)[C@H](Cc2ccc(O)cc2)NC(=O)[C@H](C(C)C)NC(=O)[C@H](CC(=O)O)NC(=O)[C@H](C(C)C)NC(=O)[C@H](CC(=O)O)NC1=O [Compound 24a, *F.NMeF.NMeA.Y.Y.D.V.D.V.D.V.Y.NMeF.H.*C.G-NH2] ({CH2CO}-F[NMeF][NMeA]YYDVDVDVY[NMeF]HCG-NH2; thioether N-15) | 5.4 nM
11 | CC(C)[C@@H]1NC(=O)[C@H](CC(=O)O)NC(=O)[C@H](Cc2ccc(O)cc2)NC(=O)[C@H](Cc2ccc(O)cc2)NC(=O)[C@H](Cc2ccccc2)N(C)C(=O)[C@H](C)N(C)C(=O)[C@H](Cc2ccccc2)NC(=O)CSC[C@@H](C(=O)NCC(N)=O)NC(=O)[C@H](Cc2c[nH]cn2)NC(=O)[C@H](Cc2ccccc2)N(C)C(=O)[C@H](Cc2ccc(O)cc2)NC(=O)[C@H](C(C)C)NC(=O)[C@H](CC(=O)O)NC(=O)[C@H](C(C)C)NC(=O)[C@H](CC(=O)O)NC1=O [Compound 25a, *F.NMeA.NMeF.Y.Y.D.V.D.V.D.V.Y.NMeF.H.*C.G-NH2] ({CH2CO}-F[NMeA][NMeF]YYDVDVDVY[NMeF]HCG-NH2; thioether N-15) | 199 nM
